Data set [1] concerns the target T1, RUP3 (Homo sapiens, UniProt Q8TDV5).
T1 construct: ID; No:2; expressed in transfected cells; host or cells: melanophores (cultured as per Potenza and Lerner 1992), electroporated
T1 sequence (Q8TDV5 with tags, fused parts or gaps): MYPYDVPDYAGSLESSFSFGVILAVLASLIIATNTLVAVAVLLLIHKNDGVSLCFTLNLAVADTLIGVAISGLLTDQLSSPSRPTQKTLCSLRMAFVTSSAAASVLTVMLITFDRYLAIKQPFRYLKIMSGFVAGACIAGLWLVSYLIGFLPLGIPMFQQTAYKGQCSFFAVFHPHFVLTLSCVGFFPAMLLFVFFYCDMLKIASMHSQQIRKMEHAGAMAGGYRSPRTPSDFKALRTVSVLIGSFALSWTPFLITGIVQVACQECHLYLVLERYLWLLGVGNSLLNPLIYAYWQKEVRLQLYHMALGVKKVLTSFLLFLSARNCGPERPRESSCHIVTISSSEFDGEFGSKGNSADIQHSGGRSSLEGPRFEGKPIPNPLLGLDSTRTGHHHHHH
The experiment in a line: RUP3 dose responses in melanophores (melanophore dispersion assay). The data set is classed as cell-based. The method, then: Melanophores are maintained in culture as reported by Potenza, M. N. and Lerner, M. R., in Pigment Cell Research, Vol. 5, 372-378, 1992 and transfected with the RUP3 expression vector (pCMV) using electroporation. Following electroporation, the transfected cells are plated into 96 well plates for the assay. The cells are then allowed to grow for 48 hours in order to both recover from the electroporation procedure and attain maximal receptor expression levels.
On the assay day, the growth medium on the cells is replaced with serum-free buffer containing 10 nM melatonin. The melatonin acts via an endogenous Gi-coupled GPCR in the melanophores to lower intracellular cAMP levels. In response to lowered cAMP levels, the melanophores translocate their pigment to the center of the cell. The net effect of this is a significant decrease in the absorbance reading of the cell monolayer in the well, measured at […].
After a 1-hour incubation in melatonin, the cells become completely pigment-aggregated. At this point a baseline absorbance reading is collected. Serial dilutions of test compounds are then added to the plate and compounds that stimulate RUP3 produce increases in intracellular cAMP levels. In response to these increased cAMP levels, the melanophores translocate their pigment back into the cell periphery. After one hour, stimulated cells are fully pigment-dispersed. The cell monolayer in the dispersed state absorbs much more light in the 600-650 nm range. The measured increase in absorbance compared to the baseline reading allows one to quantitate the degree of receptor stimulation and plot a dose-response curve.
The compounds in the above examples were screened using the melanophore dispersion assay, as described above.

In data set [2] the test system is Male C57b1/6J mice. The experiment in a line: Oral glucose tolerance test (oGTT) in mice. The data set is classed as in vivo. The conditions noted are these: for lowering of blood glucose in oGTT (in words): mice after challenge with glucose; for Mean % Inhibition of Glucose Excursion: oGTT, mice, p.o. The method, then:
A. Oral Glucose tolerance test (oGTT)
[…] Compounds were delivered orally via a gavage needle (p.o., volume 10 mL/Kg). At time 0, levels of blood glucose were assessed using a glucometer (Elite XL, Bayer), and mice were administered either vehicle (20% hydroxypropyl-beta-cyclodextrin) or test compound. Thirty minutes after administration of test compound, levels of blood glucose were again assessed, and mice were administered dextrose orally at a dose of 3 g/Kg. Blood glucose measurements were then taken 20 min, 40 min, 60 min and 120 min after this time.

The nature of data set [3]: Aqueous solubility. The data set is classed as physicochemical. The conditions noted are these: aqueous medium, aqueous buffer.
The nature of data set [4]: Rat dose-range PK study (dose escalation pharmacokinetics). The data set is classed as in vivo. The method, then: Animal, Compound Formulation, Dosing, and Blood Sample Collection: […]
Male SD rats (250-300 g) were purchased from Charles River Laboratory; upon reciept, animals were placed under light-dark cycle (6:30 am-6:30 pm lights on). They were allowed ad libitum access to water and 4 pieces of food daily (Purina Meals Rodent Diet, Product Number 5001).
Compound formulations were prepared as following: The IV injection formulation was prepared in 20% hydroxypropyl-beta-cyclodextrin with concentration of […]. The PO formulations were prepared in 0.5% hydroxypropyl methylcellulose with concentrations of […]. […]
Plasma samples were prepared as follows. […] Calibration standards were typically prepared in the range of 2.0 ng/mL to 10 μg/mL with linear regression for quantitation. […]
Results were calculated by noncompartmental analysis using WinNonlin Pro version 3.1 based on plasma concentration—time profiles for individual animals. Plasma levels were determined as described above and the oral and intravenous area under the concentration vs. time curve (AUC was calculated using the linear trapezoidal rule up to the last measurable concentration and was then extrapolated to infinity) were compared to determine the % bioavailability (% F) by the following formula: Dose (IV)*AUC (oral)/Dose (oral)*AUC (IV). […]

Where [5] appears, read: melanophore dispersion assay, read-out: RUP3 (EC50).

What is called EC50 is the concentration that produces a half-maximal response. The term solubility denotes the concentration that dissolves in the medium under given conditions.

≈ marks a conversion by molar mass, not a printed value. Where two headings read alike, the source gives them in different places.

For the compound `COc1cc(S(C)(=O)=O)ccc1Nc1ncnc(OC2CCN(C(=O)OC(C)C)CC2)c1OC` [Compound 10, 4-[6-(4-Methanesulfonyl-2-methoxy-phenylamino)-5-methoxy-pyrimidin-4-yloxy]-piperidine-1-carboxylic acid isopropyl ester], in data set [1] (setting [5]), the EC50 turned out to be 26 nM.
`COc1c(Nc2ccc(S(C)(=O)=O)cc2F)ncnc1OC1CCN(C(=O)OC(C)C)CC1` [Compound 24, 4-[6-(2-Fluoro-4-methanesulfonyl-phenylamino)-5-methoxy-pyrimidin-4-yloxy]-piperidine-1-carboxylic acid isopropyl ester]: the EC50 in data set [1] (setting [5]) was found to be 0.49 nM.
In the case of `CCOc1cc(F)c(Nc2ncnc(OC3CCN(C(=O)OC(C)C)CC3)c2OC)cc1F` [Compound 75, 4-[6-(4-Ethoxy-2,5-difluoro-phenylamino)-5-methoxy-pyrimidin-4-yloxy]-piperidine-1-carboxylic acid isopropyl ester], the “lowering of blood glucose in oGTT (in words)” value in data set [2] is “lowered blood glucose in a dose-dependent manner”. The “Mean % Inhibition of Glucose Excursion” value was determined as 22% in data set [2] (dose 3 mg/Kg) and 34% in data set [2] (dose 10 mg/Kg).
For the compound `COc1c(Oc2ccc(S(C)(=O)=O)cc2F)ncnc1OC1CCN(C(=O)OC(C)C)CC1` [Compound 76, 4-[6-(2-Fluoro-4-methanesulfonyl-phenoxy)-5-methoxy-pyrimidin-4-yloxy]-piperidine-1-carboxylic acid isopropyl ester], the EC50 in data set [1] (setting [5]) turned out to be 2.51 nM.
Take `COc1c(OC2CCN(C(=O)OC(C)C)CC2)ccnc1Nc1ccc(S(C)(=O)=O)cc1F` [Compound 77, 4-[2-(2-Fluoro-4-methanesulfonyl-phenylamino)-3-methoxy-pyridin-4-yloxy]-piperidine-1-carboxylic acid isopropyl ester]: the solubility in data set [3] (pH=2) turned out to be 1120 µg/mL (≈ 2330 µM); in data set [3] (pH=5), 190 µg/mL (≈ 395 µM).
The corresponding values for `COc1c(Nc2ccc(NCCO)nc2C)ncnc1OC1CCN(C(=O)OC(C)C)CC1` [Compound 78, 4-{6-[6-(2-Hydroxy-ethylamino)-2-methyl-pyridin-3-ylamino]-5-methoxy-pyrimidin-4-yloxy}-piperidine-1-carboxylic acid isopropyl ester] are 1450 µg/mL (≈ 3150 µM) and 380 µg/mL (≈ 825 µM).
Consider `COc1c(Nc2ccc(S(C)(=O)=O)nc2C)ncnc1OC1CCN(C(=O)OC(C)C)CC1` [Compound 84, 4-[6-(6-Methanesulfonyl-2-methyl-pyridin-3-ylamino)-5-methoxy-pyrimidin-4-yloxy]-piperidine-1-carboxylic acid isopropyl ester], for which the response in data set [1] was half-maximal at 3.55 nM (EC50). Further, the “agonist activity at the RUP3 receptor (in words)” value in data set [1] is recorded as “potent agonist”. Moreover, the “dose escalation pharmacokinetics, AUC vs dose (in words)” value in data set [4] (FIG. 5) is “linear dose escalation pharmacokinetics”; in data set [4] (FIG. 5, listed as 4-[6-(6-Methanesulfonyl-2-methyl-pyridin-3-ylamino)-5-methoxy-pyrimidin-4-yloxy]), “essentially linear dose escalation pharmacokinetics”. In addition, the “reduction in AUC (blood glucose, oGTT)” value was found to be 38% in data set [2] (Experiment 1, 30 mpk) and 84% in data set [2] (Experiment 2, 30 mpk). The “lowering of blood glucose in oGTT (in words)” value in data set [2] was “able to lower blood glucose”.
